According to PMC10529594, “Strasseriolides display in vitro and in vivo activity against trypanosomal parasites and cause morphological and size defects in Trypanosoma cruzi” (PLOS Neglected Tropical Diseases, 2023):
Values joined by “and” are separate entries in the source; they are usually repeats but may differ in a detail not shown here. Identical values can stand only once.

How the values were obtained:
[1] = test system: T. cruzi Tulahuen C4 trypomastigotes; assay: T. cruzi trypomastigote viability assay (resazurin fluorescence); assay type: cell-based, Trypanosoma cruzi; details: Tulahuen C4, 72 hours at 37°C
Experimental: (§1) Tulahuen T. cruzi trypomastigotes were recovered 6 days post infection from the supernatant of harvested infected L6 cells cultures after 3 hours at 37°C. 90 μL of parasite culture at a density of 5 × 10^6 cells in RPMI 1640 media were dispensed into 96 Nunc flat bottom assay plates containing 10 μL of each compound.
In the fluorescence assay, plates were incubated for 24 and 48 hours after which 10 μL of the resazurin solution were added to each well. Plates were further incubated for 24 hours and fluorescence was measured at 550/590 nm using a Tecan Infinite 200 microplate reader. […] Final maximal DMSO percentage in the well was 0.1% and compound concentrations ranged from 0.2 to 100 μM.

T. cruzi trypomastigotes = assay: T. cruzi trypomastigote viability / rate of action assay (CellTiter-Glo bioluminescence); assay type: cell-based, Trypanosoma cruzi; details: for EC50: Trypanosoma cruzi; for Hill slope: Trypomastigotes
Experimental: as §1
Parasite viability was assessed upon 24, 48 and 72 hour incubation at 37°C in 5% CO2 by adding 50 μL of CellTiter-Glo viability reagent to white 96-well microplates. After signal stabilization, bioluminescence was read. Compound concentrations ranged from 0.1 μM to 50 μM and final maximal DMSO percentage in the well was 0.05%. Results were normalized to […] control columns in each plate.

[2] = test system: intracellular T. cruzi amastigotes; assay: Rate of kill, intracellular T. cruzi amastigotes (CPRG, 96-well); assay type: cell-based, Trypanosoma cruzi; details: Amastigotes; for EC50: Trypanosoma cruzi
Experimental: For rate of kill experiments, in vitro activity against intracellular T. cruzi amastigotes was analyzed at early time points: 24, 48 and 72 hours. The standard colorimetric transgenic assay was established in a 96-well format, with serial dilutions of compounds and 0.05% as the final maximal DMSO percentage per well. In these experiments L6 host cells were included as negative controls and CPRG conversion was monitored at 585 nm using a Versamax microplate reader (Molecular devices).

T. cruzi epimastigotes = assay: FACS analysis of T. cruzi epimastigotes (cell cycle, size and complexity); assay type: cell-based, Trypanosoma cruzi; details: for Foward Scatter (FSC) - Geometric Mean, single experiment / Foward Scatter (FSC) - Geometric Mean, Average / size reduction with respect to untreated parasites: 72 h
Experimental: FACS analysis was used to study cell cycle progression and cellular parameters such as size and complexity. 5 × 10^6 T. cruzi epimastigotes were harvested by centrifugation at 1,000×g and 4°C after 72 hours of incubation in a 6-well plate in the presence and in absence of test compounds. Pellets of cells were washed with 5 mL of PBS and fixed in a solution of 70% ice-cold ethanol/PBS at -20°C overnight. Cells were then collected by centrifugation, washed with PBS and stained with 40 μg/mL of propidium iodide in PBS containing 10 μg/mL of RNase A at 37°C for 30 minutes. Fluorescence was monitored with a Becton Dickinson FACSCalibur using BD CellQuest Pro version 4.0.2 software with a total of 10,000 events acquired for each sample. The different cell populations as well as mean cellular parameters were determined by FlowJo software.

[3] = test system: transgenic Trypanosoma cruzi Brazil strain expressing firefly luciferase; assay: In vivo efficacy, acute T. cruzi infection in BALB/c mice (luciferase imaging); details: 30 mg/kg i.p. 5 days
Experimental: In vivo experiments were performed at the Anti-infectives Screening Core Services facility of the New York University School of Medicine. The transgenic Trypanosoma cruzi Brazil strain expressing firefly luciferase was used. Groups of five female BALB/c mice were infected with 2 × 10^6 T. cruzi trypomastigotes. […] Quantification is based on luciferase activity of the parasites after i.p. injection of 150 mg/Kg D-luciferin potassium-salt in PBS. Luminescence is measured on the fifth day using an IVIS Lumina II imager.

Plasmodium berghei = test system: Plasmodium berghei; design: method as in PMID 34865639; details: Plasmodium berghei murine model; cited from earlier work
[4] = Trypanosoma cruzi, TULAHUEN, 72 h
[5] = 72-hour drug exposure, FACS with PI staining, EC30, average
[6] = 72-hour drug exposure, FACS with PI staining, EC30, single replicates
[7] = 72-hour drug exposure, FACS with PI staining, EC70, average
[8] = 72-hour drug exposure, FACS with PI staining, EC70, single replicates

## C/C1=C\[C@H](C)CCC(=O)/C(C)=C/[C@H](C)C[C@@H](C)CC[C@@H]([C@@H](C)C(=O)O)OC(=O)[C@@H](C)C1 [Strasseriolide A, strasseriolide A]
[1]; [4]
  EC50: > 25000 nM

## C/C1=C\[C@H](C)CC[C@@H](O)/C(C)=C/[C@H](C)C[C@@H](C)CC[C@@H]([C@@H](C)C(=O)O)OC(=O)[C@@H](C)C1 [Strasseriolide B, strasseriolide B]
[1]; [4]
  EC50: < 200 nM

## O=C(Cn1ccnc1[N+](=O)[O-])NCc1ccccc1 [Benznidazole, benznidazole]
[1]; [4]
  EC50: 3930 nM
T. cruzi trypomastigotes; 24 h, 0.0976562 µM, untreated 165925
  RLU Average, trypomastigote viability: 168859 RLU
T. cruzi trypomastigotes; 24 h, 0.195312 µM, untreated 165925
  RLU Average, trypomastigote viability: 163337 RLU
T. cruzi trypomastigotes; 24 h, 0.390625 µM, untreated 165925
  RLU Average, trypomastigote viability: 166320 RLU
T. cruzi trypomastigotes; 24 h, 0.78125 µM, untreated 165925
  RLU Average, trypomastigote viability: 165144 RLU
T. cruzi trypomastigotes; 24 h, 1.5625 µM, untreated 165925
  RLU Average, trypomastigote viability: 164063 RLU
T. cruzi trypomastigotes; 24 h, 3.125 µM, untreated 165925
  RLU Average, trypomastigote viability: 161383 RLU
T. cruzi trypomastigotes; 24 h, 6.25 µM, untreated 165925
  RLU Average, trypomastigote viability: 134179 RLU
T. cruzi trypomastigotes; 24 h, 12.5 µM, untreated 165925
  RLU Average, trypomastigote viability: 39621 RLU
T. cruzi trypomastigotes; 24 h, 25 µM, untreated 165925
  RLU Average, trypomastigote viability: 10652 RLU
T. cruzi trypomastigotes; 24 h, 50 µM, untreated 165925
  RLU Average, trypomastigote viability: 5606 RLU
T. cruzi trypomastigotes; 48 h, 0.0976562 µM, untreated 141819
  RLU Average, trypomastigote viability: 139946 RLU
T. cruzi trypomastigotes; 48 h, 0.195312 µM, untreated 141819
  RLU Average, trypomastigote viability: 134140 RLU
T. cruzi trypomastigotes; 48 h, 0.390625 µM, untreated 141819
  RLU Average, trypomastigote viability: 131074 RLU
T. cruzi trypomastigotes; 48 h, 0.78125 µM, untreated 141819
  RLU Average, trypomastigote viability: 112587 RLU
T. cruzi trypomastigotes; 48 h, 1.5625 µM, untreated 141819
  RLU Average, trypomastigote viability: 83947 RLU
T. cruzi trypomastigotes; 48 h, 3.125 µM, untreated 141819
  RLU Average, trypomastigote viability: 48357 RLU
T. cruzi trypomastigotes; 48 h, 6.25 µM, untreated 141819
  RLU Average, trypomastigote viability: 13088 RLU
T. cruzi trypomastigotes; 48 h, 12.5 µM, untreated 141819
  RLU Average, trypomastigote viability: 3643 RLU
T. cruzi trypomastigotes; 48 h, 25 µM, untreated 141819
  RLU Average, trypomastigote viability: 1831 RLU
T. cruzi trypomastigotes; 48 h, 50 µM, untreated 141819
  RLU Average, trypomastigote viability: 1028 RLU
T. cruzi trypomastigotes; 72 h, 0.0976562 µM, untreated 100126
  RLU Average, trypomastigote viability: 104132 RLU
T. cruzi trypomastigotes; 72 h, 0.195312 µM, untreated 100126
  RLU Average, trypomastigote viability: 98515 RLU
T. cruzi trypomastigotes; 72 h, 0.390625 µM, untreated 100126
  RLU Average, trypomastigote viability: 89377 RLU
T. cruzi trypomastigotes; 72 h, 0.78125 µM, untreated 100126
  RLU Average, trypomastigote viability: 67508 RLU
T. cruzi trypomastigotes; 72 h, 1.5625 µM, untreated 100126
  RLU Average, trypomastigote viability: 34320 RLU
T. cruzi trypomastigotes; 72 h, 3.125 µM, untreated 100126
  RLU Average, trypomastigote viability: 15352 RLU
T. cruzi trypomastigotes; 72 h, 6.25 µM, untreated 100126
  RLU Average, trypomastigote viability: 4824 RLU
T. cruzi trypomastigotes; 72 h, 12.5 µM, untreated 100126
  RLU Average, trypomastigote viability: 2711 RLU
T. cruzi trypomastigotes; 72 h, 25 µM, untreated 100126
  RLU Average, trypomastigote viability: 1262 RLU
T. cruzi trypomastigotes; 72 h, 50 µM, untreated 100126
  RLU Average, trypomastigote viability: 683 RLU
T. cruzi trypomastigotes; 24 h
  EC50: 8940 nM
  Hill slope: 3.93
T. cruzi trypomastigotes; 48 h
  EC50: 2050 nM
  Hill slope: 1.66
T. cruzi trypomastigotes; 72 h
  EC50: 1150 nM
  Hill slope: 2.07
T. cruzi trypomastigotes; 48 h, listed as benznidazole
  Hill slope: below 2.1
T. cruzi trypomastigotes; 72 h, listed as benznidazole
  Hill slope: below 2.1
[2]; 24 h
  Hill slope: 1.06
  EC50: 2870 nM
[2]; 48 h
  Hill slope: 1.24
  EC50: 1030 nM
[2]; 72 h
  Hill slope: 1.99
  EC50: 890 nM
T. cruzi epimastigotes; EC30
  Foward Scatter (FSC) - Geometric Mean, single experiment: 93.4 and 92.7
T. cruzi epimastigotes; EC30, control 96.65
  Foward Scatter (FSC) - Geometric Mean, Average: 93.05
T. cruzi epimastigotes; EC70
  Foward Scatter (FSC) - Geometric Mean, single experiment: 96.7 and 91.2
T. cruzi epimastigotes; EC70, control 96.65
  Foward Scatter (FSC) - Geometric Mean, Average: 93.95
T. cruzi epimastigotes; EC90
  Foward Scatter (FSC) - Geometric Mean, single experiment: 75.3 and 74.1
T. cruzi epimastigotes; EC90, control 96.65
  Foward Scatter (FSC) - Geometric Mean, Average: 74.7
[3]; 30 mg/kg
  Total counts, individual mouse: 4950000 and 268000 and 48200 and 38100
[3]; vehicle average 8050000
  Total counts, Average: 1330000

## C/C1=C\[C@H](C)[C@@H](O)C[C@@H](O)/C(C)=C/[C@H](C)C[C@@H](C)CC[C@@H]([C@@H](C)C(=O)O)OC(=O)[C@@H](C)C1 [Strasseriolide D, strasseriolide D]
[1]; [4]
  EC50: 3400 nM
[1]
  EC50: 3380 nM
T. cruzi epimastigotes; [5]
  % Cells G1, Average: 48.0485%
  % Cells G2/M, Average: 33.3241%
  % Cells S, Average: 15.9233%
  % Cells post G2/M, Average: 0.01106%
  % Cells sub-G1, Average: 2.693%
T. cruzi epimastigotes; [6]
  % Cells G1, individual replicates: 50.4058% and 45.6911%
  % Cells G2/M, individual replicates: 32.7574% and 33.8908%
  % Cells S, individual replicates: 14.3321% and 17.5145%
  % Cells post G2/M, individual replicates: 0.6783% and -0.6562%
  % Cells sub-G1, individual replicates: 1.8263% and 3.56%
T. cruzi epimastigotes; [7]
  % Cells G1, Average: 50.7294%
  % Cells G2/M, Average: 37.5216%
  % Cells S, Average: 12.1278%
  % Cells sub-G1, Average: 1.9646%
T. cruzi epimastigotes; [8]
  % Cells G1, individual replicates: 49.2764% and 52.1825%
  % Cells G2/M, individual replicates: 34.0219% and 41.0212%
  % Cells S, individual replicates: 15.873% and 8.383%
  % Cells post G2/M, individual replicates: -1.15% and -3.537%
  % Cells sub-G1, individual replicates: 1.978% and 1.951%
T. cruzi epimastigotes; EC30
  Foward Scatter (FSC) - Geometric Mean, single experiment: 81.9 and 80.4
T. cruzi epimastigotes; EC30, control 96.65
  Foward Scatter (FSC) - Geometric Mean, Average: 81.15
T. cruzi epimastigotes; EC70
  Foward Scatter (FSC) - Geometric Mean, single experiment: 77.8 and 72.2
T. cruzi epimastigotes; EC70, control 96.65
  Foward Scatter (FSC) - Geometric Mean, Average: 75
T. cruzi epimastigotes; at EC30
  size reduction with respect to untreated parasites: 16%
T. cruzi epimastigotes; at EC70
  size reduction with respect to untreated parasites: 24%
Plasmodium berghei
  in vivo antiprotozoal activity: exhibit in vivo antiprotozoal activity
